Results on ten compounds are retold here after paper PMC12715984, “Co‐cultivation and Medium Optimization: A Strategy for Discovering Fungal‐derived Protease Inhibitors” (Chemistry & Biodiversity, 2025).

Converted amounts (≈) assume the structure as drawn. Read-outs that look alike come from different tables or passages of the source.

As usually defined, the IC50 is the concentration at which inhibition is half-maximal. A word on the CC50: it is the concentration giving 50% cytotoxicity. Higher therefore signals better tolerance by the cells. One may read the inhibition as the change of the read-out against control, counted positive when it falls.

Data set [1] has as its system T. cruzi Tulahuen lacZ strain. Kind of data set: Anti-T. cruzi activity, intracellular amastigotes in HFF-1 cells, beta-galactosidase/CPRG readout. Conditions: Trypanosoma cruzi, HFF-1, 120 h.
Source text: The evaluation utilized the genetically modified T. cruzi Tulahuen lacZ strain, engineered to express the lacZ gene encoding β‐galactosidase. Viable intracellular parasites express this enzyme, which hydrolyzes the substrate chlorophenol red‐β‐D‐galactopyranoside (CPRG) to release chlorophenol red, a chromogenic product quantified spectrophotometrically at 570 nm. The absorbance intensity directly correlates with the number of metabolically active parasites present during the assay.
Axenic cultures of T. cruzi epimastigotes (strain MHOM/CH/00/Tulahuen C2, lacZ) were grown in LIT medium containing 10% fetal calf serum (FCS) at 28°C. During the exponential growth phase, parasites were collected via centrifugation (250 × g, 10 min), resuspended in Grace's insect medium supplemented with 10% FCS, and differentiated into metacyclic trypomastigotes over 5–14 days. Differentiated parasites were harvested and used to infect Human Foreskin Fibroblasts (HFF‐1), cultured in Dulbecco's Modified Eagle Medium (DMEM) with 10% FCS under 5% CO2 at 37°C.
For infection assays, HFF‐1 cells were plated in 96‐well plates (5 × 10⁴ cells/well) in 80 µL phenol red‐free DMEM and incubated overnight. Metacyclic trypomastigotes (5 × 10⁵ parasites/well in 20 µL) were added, followed by 24‐hour incubation. After this period, trypomastigotes differentiate into intracellular amastigotes. Non‐infective parasites were removed by replacing the medium with 100 µL fresh DMEM. Test compounds, at varying concentrations, were then applied to determine IC50 values against intracellular amastigotes, with benznidazole as the positive control. After 5 days of incubation (37°C, 5% CO2), 50 µL of 1 mM CPRG and 0.1% IGEPAL CA‐630 (a non‐ionic detergent) were added. β‐Galactosidase activity, reflecting parasite viability, induced a colorimetric shift from yellow to red, measured at 570 nm. Growth inhibition percentages were calculated relative to untreated controls. Benznidazole was used as the positive control and DMSO as the negative control.
A further data set is described as follows: Cytotoxicity assay, MTS. It is filed as cell-based. The conditions noted are these: human, HFF-1, 120-hour incubation, maximum tested 64 µM. The protocol: Cytotoxicity assays: HFF‐1 fibroblasts (provided by Rio de Janeiro Cell Bank (BCRJ)) were seeded at a density of 2 × 10^3 cells per well in 100 µL of DMEM and incubated overnight at 37°C in a 5% CO2 atmosphere. Subsequently, test compounds were added in serial dilutions, followed by a 120‐hour incubation period under the same conditions. Each plate included negative controls and doxorubicin as a positive control. After incubation, 15 µL of MTS reagent (CellTiter96) was added to each well, and plates were incubated for an additional 4 h. Absorbance was measured at 490 nm using a microplate reader. The percentage of growth inhibition was calculated relative to the absorbance of the negative control wells.

In data set [2] the target is T1, papain (Carica papaya, UniProt P00784).
T1 construct: purchased
T1 sequence (P00784 134-345): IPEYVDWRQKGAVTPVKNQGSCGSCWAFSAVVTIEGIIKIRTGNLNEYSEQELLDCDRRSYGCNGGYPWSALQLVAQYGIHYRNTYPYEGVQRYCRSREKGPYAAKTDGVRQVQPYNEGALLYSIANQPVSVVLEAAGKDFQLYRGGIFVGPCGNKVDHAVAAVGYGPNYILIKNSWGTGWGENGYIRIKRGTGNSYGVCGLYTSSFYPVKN
Kind of data set: Papain inhibition, fluorometric Z-Phe-Arg-MCA assay. It counts as biochemical. Conditions: for inhibition at 100 µM: read-out: % inhibition (100 µM). The procedure:
Compounds 1, 2, 4, and 7–11 were tested against papain inhibitory activity. Papain served as the model cysteine protease in the protease inhibition assay. Enzyme activity was assessed via real‐time fluorometric monitoring of 7‐amino‐4‐methylcoumarin (MCA) release during substrate cleavage. Hydrolysis of the fluorogenic substrate Z‐Phe‐Arg‐MCA (ZFR‐MCA) was tracked in black 96‐well plates using a spectrofluorometer (λex/λem = 380/460 nm) (SpectraMax M3, Molecular Devices).
Each reaction well contained 5 µL papain (80 nM), 2 µL dithiothreitol (DTT, 500 mM), and 158 µL sodium acetate buffer (100 mM, pH 5.5, 5 mM EDTA). After a 5‐minute pre‐incubation at 27°C, 5 µL of test compound (dissolved in DMSO) or DMSO (negative control) was added. In the initial screening, all compounds were tested at a fixed concentration of 100 µM to evaluate their inhibitory potential. Following a second 5‐minute incubation at 27°C, 30 µL ZFR‐MCA (0.6 mM) was added, and fluorescence was recorded every 300 s using a SpectraMax M3 microplate reader (Molecular Devices). This concentration guided subsequent serial dilutions to determine the IC50 (half‐maximal inhibitory concentration).
For this, a serial dilution series was prepared from the active compounds, and the assay was conducted as previously described. Final assay conditions (200 µL/well) yielded effective compound concentrations of 100 µM to 1.56 µM for IC50 determination. Papain's molar concentration was validated via titration with the irreversible inhibitor E‐64 (positive control) from 1.0 µM to 31.25 nM. All experiments included triplicate measurements across two independent trials (total n = 6).

For data set [3], the system named is Candida albicans (ATCC 64548). Put plainly: Antifungal broth microdilution (CLSI M27A3), MIC. It counts as cell-based. Conditions: for MIC: Candida albicans, ATCC64548, read-out: minimum inhibitory concentration (MIC). The protocol:
The antifungal activity of compounds 1–5, 7–11 was evaluated using the broth microdilution method in 96‐well plates, following the Clinical Laboratory Standard Institute (CLSI) guidelines M27A3 [35, 36], with minor modifications. The assay was performed against Candida auris (CDC B11903), Candida parapsilosis (ATCC 22019), and Candida albicans (ATCC 64548), and based on the determination of the minimum inhibitory concentration (MIC).
Each compound was initially dissolved in DMSO at a stock concentration 100 times higher than the highest concentration tested. Working solutions were subsequently prepared in RPMI 1640 culture medium (pH 7.0), supplemented with L‐glutamine, devoid of bicarbonate, and containing phenol red as a pH indicator, to yield a 2 × concentration. Serial two‐fold dilutions were made to obtain final concentrations ranging from 3.125 to 200.00 µg/mL. Fluconazole was used as a reference antifungal control.
Aliquots of 100 µL of each 2 × test solution were dispensed into the wells of the microdilution plates. Fungal suspensions were prepared in autoclaved distilled water and adjusted to a final concentration of 5.0 × 10^3 conidia or blastoconidia/mL. After inoculation, plates were incubated at 37°C. Fungal growth was visually assessed after 24 and 48 h. […] All assays were performed in duplicate.
(In general: Broth dilution looks for growth in wells or tubes with falling amounts of substance.)

The target of data set [4] is T1, papain. Also on record: method as in earlier work. The conditions noted are these: at 200 µM; cited from earlier work.
For a further data set, the system named is plant-parasitic nematode. Also on record: method as in PMID 27990770. Conditions: cited from earlier work.
Another data set relates to bacteria. Also on record: method as in PMID 21497643. The conditions noted are these: cited from earlier work.
Another data set deals with Cryphonectria parasitica. Also on record: method as in PMID 11052720. Conditions: against Cryphonectria parasitica; cited from earlier work.
The target of data set [5] is T1, papain. Also on record: method as in PMID 32189177. Conditions: at a concentration of 50 µM, cited from earlier work.

In [1], `O=C(Cn1ccnc1[N+](=O)[O-])NCc1ccccc1` [Benznidazole, reference compound] registered an IC50 of 2.24 ± 0.9 µM.

`CCCCc1ccc(C(=O)[O][Mg][O]C(=O)c2ccc(CCCC)cn2)nc1` [Compound 2, magnesium complex of fusaric acid]: in “Cytotoxicity assay, MTS”, the CC50 at 120 h is > 64 µM. For the same compound, the half-maximal inhibitory concentration (IC50) in data set [1] was 12.2 ± 0.4 µM; at papain [2] (papain) it was 17.5 µM. On papain [2], the inhibition at 100 µM worked out at 94 ± 7.9%. Further, in data set [3], the MIC amounted to 50 µg/mL.

Regarding `CSC12CC3=CC=CC(OC(C)=O)C3N1C(=O)C1(SC)CC3=CC=CC(OC(C)=O)C3N1C2=O` (centres unmarked) [Compound 4, haematocin], the CC50 at 120 h in the data set “Cytotoxicity assay, MTS” was > 64 µM. The IC50 in [1] worked out at 13.3 ± 1 µM; at papain [2], 47.7 µM. Also, the inhibition at 100 µM on papain [2] was found to be 76.6%. Also, the MIC in data set [3] was 100 µg/mL (≈ 199 µM).

In the case of `CCCCc1ccc(C(=O)O)nc1` [Compound 5, fusaric acid], the CC50 at 120 h in the data set “Cytotoxicity assay, MTS” is > 64 µM. Moreover, in [1], 20.9 ± 0.3 µM corresponded to half-maximal inhibition (IC50). For the same compound, the papain inhibition at papain [4] is 58%.

On to `C[C@@H](O)CCc1ccc(C(=O)O)nc1` [Compound 7, (R)‐fusarinolic acid], for which, in “Cytotoxicity assay, MTS” (HFF-1 fibroblasts), the CC50 at 120 h is > 64 µM. For the same compound, in the data set with plant-parasitic nematode, the plant-parasitic nematode activity entry is listed as “no significant activity”. Also, the 50% inhibitory concentration (IC50) in [1] worked out at 60.07 ± 0.6 µM. Moreover, the antibacterial activity result with bacteria is listed as “no significant activity”.

As for `CC(C)=CCCC(C)(O)C1CCC(C)(O)C1C` (centres unmarked) [Compound 8, cyclonerodiol], the antifungal activity entry with Cryphonectria parasitica is given as “weak antifungal activity”. Moreover, the cytotoxic concentration (CC50) at 120 h in the data set “Cytotoxicity assay, MTS” (HFF-1 fibroblasts) is > 64 µM. Moreover, the half-maximal inhibitory concentration (IC50) in [1] worked out at 22.7 ± 1.1 µM; at papain [2] (papain, read-out: IC50) it was 25.9 µM. Moreover, the inhibition at 100 µM on papain [2] (papain, compound at 100 µM) came to 89%.

Regarding `CC(C)C[C@H](NC(=O)[C@H]1O[C@@H]1C(=O)O)C(=O)NCCCCN=C(N)N` [E‐64, reference compound], the IC50 at papain [2] (papain, positive control, read-out: IC50) is 0.0072 µM.

`CC(C)C[C@@H]1NC(=O)[C@@H]2CCCN2C1=O` [cyclo(L‐Leu‐L‐Pro) diketopiperazine]: on papain [5] (50 µM), the papain inhibition was 3%.

Turning to `CC(C)[C@@H]1NC(=O)[C@@H]2CCCN2C1=O` [cyclo(L‐Val‐L‐Pro)], the papain inhibition at papain [5] is recorded as 10%.

Regarding “Iron complex of fusaric acid [Compound 1]”, at papain [2] (papain, compound at 100 µM, 100 µM), the “% inhibition (100 µM)” value is reported as 88.6%. For the same compound, the IC50 on papain [2] (papain, read-out: IC50) was determined as 14.1 µM. Moreover, in data set [3] (C. albicans, tested 3.125 to 200.00 µg/mL), the “minimum inhibitory concentration (MIC)” value was 100 µg/mL.
